Assay results published in publication PMC4200789, “Design, Synthesis and Biological Evaluation of Sulfamide and Triazole Benzodiazepines as Novel p53-MDM2 Inhibitors” (International Journal of Molecular Sciences, 2014).
Where two headings read alike, the source gives them in different places.

What was measured:
[1] = target: MDM2 binding domain (1–118) / PMDM6-F peptide (p53-MDM2) (Homo sapiens, UniProt Q00987); assay: fluorescence polarization (FP) p53-MDM2 binding assay
Method: A well-established fluorescence polarization (FP) binding assay was performed to measure the inhibitory activity (Ki) of designed compounds. […] The two phenyl rings of (R)-7c were located in the Phe19 and Trp23 pockets respectively and the propargyl group was partly inserted into the Leu26 pocket.
The dose-dependent binding experiments were carried out with serial dilution in DMSO of compounds. […] The Ki values were determined from a plot using nonlinear least-squares analysis. And curve fitting was performed using GraphPad Prism software.

A549 (wild-type p53) = assay: in vitro antitumor activity, MTT; assay type: cell-based; conditions: Homo sapiens, read-out: IC50 A549 (wt-p53)
Method: (§1) To investigate the in vitro antiproliferative activity of the designed p53-MDM2 inhibitors, four human tumor cell lines, namely U-2 OS (wild-type p53), A549 (wild-type p53), Saos-2 (p53 null), and NCI-H1299 (p53 null), were chosen for assaying.
(§2) The cellular growth inhibitory activity was determined using four human cancer cell lines [U-2 OS (wild-type p53), A549 (wild-type p53), Saos-2 (p53 null), and NCI-H1299 (p53 null)]. 5–6 × 10^4 cells per well were plated in 96-well plates. After culturing for 24 h, test compounds were added onto triplicate wells with different concentrations and 0.1% DMSO for control. After 72 h of incubation, 20 μL of MTT (3-[4,5-dimethylthiazol-2-yl]-2,5-diphenyltetrazoliumbromide) solution (5 mg/mL) was added to each well, and after the samples were shaken for 1min the plate was incubated further for 4 h at 37 °C. […] were dissolved with 100 μL of DMSO. The absorbance (OD) was quantitated with microplate using Biotek Synergy H2 at 570 nm (BioTek, Winooski, VT, USA). Wells containing no drugs were used as blanks.

NCI-H1299 (p53 null) = assay: in vitro antitumor activity, MTT; assay type: cell-based; conditions: Homo sapiens, read-out: IC50 NCI-H1299 (p53 null)
Method: as §1, §2

Saos-2 (p53 null) = assay: in vitro antitumor activity, MTT; assay type: cell-based; conditions: Homo sapiens, read-out: IC50 Saos-2 (p53 null)
Method: as §1, §2

U-2 OS (wild-type p53) = assay: in vitro antitumor activity, MTT; assay type: cell-based, human; conditions: for IC50: Homo sapiens, U2OS, 72 h, read-out: IC50 U-2 OS (wt-p53)
Method: as §1, §2

[2] = test system: four human tumor cell lines (U-2 OS, A549, Saos-2, NCI-H1299); assay: in vitro antitumor activity, MTT, four cell lines together; assay type: cell-based
Method: as §1, §2

[3] = parameters: method as in PMID 16630722, PMID 16600594, PMID 16290148; conditions: cited from earlier work
[4] = FP binding assay, MDM2 (1–118) 10 nM, PMDM6-F 10 nM, read-out: Ki

Chain of MDM2 binding domain (1–118) / PMDM6-F peptide (p53-MDM2) (Q00987 1-118): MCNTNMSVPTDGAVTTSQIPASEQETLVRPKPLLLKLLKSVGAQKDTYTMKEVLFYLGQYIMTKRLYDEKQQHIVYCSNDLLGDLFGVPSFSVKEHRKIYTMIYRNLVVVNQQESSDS

| Structure (SMILES) | Ki [1, 4] | IC50 (A549 (wild-type p53); A549, MTT, 72 h) | IC50 (NCI-H1299 (p53 null); NCI-H1299, MTT, 72 h) | IC50 (Saos-2 (p53 null); SAOS-2, MTT, 72 h) | IC50 (U-2 OS (wild-type p53); MTT) | IC50 (U-2 OS (wild-type p53)) | also measured |
| --- | --- | --- | --- | --- | --- | --- | --- |
| C#CCN1C(=O)C(c2ccc(Cl)cc2)N(CC#C)S(=O)(=O)c2ccccc21 (stereo not drawn) [Compound 7a, 3-(4-Chlorophenyl)-2,5-di(prop-2-yn-1-yl)-2,3-dihydrobenzo[f][1,2,5]thiadiazepin-4(5H)-one 1,1-dioxide] | 0.43 µM | > 100 µM | > 100 µM | > 100 µM | > 100 µM |  |  |
| C#CCN1C(c2ccc(Cl)cc2)C(=O)N(C=C=C)c2ccccc2S1(=O)=O (stereo not drawn) [Compound 7b, 3-(4-Chlorophenyl)-2-(prop-2-yn-1-yl)-5-(propa-1,2-dien-1-yl)-2,3-dihydrobenzo[f][1,2,5]thiadiazepin-4(5H)-one 1,1-dioxide] | 0.36 µM | > 100 µM | > 100 µM | > 100 µM | > 100 µM |  |  |
| C#CCN1C(c2ccc(Cl)cc2)C(=O)Nc2ccccc2S1(=O)=O (stereo not drawn) [Compound 7c, 3-(4-Chlorophenyl)-2-(prop-2-yn-1-yl)-2,3-dihydrobenzo[f][1,2,5]thiadiazepin-4(5H)-one 1,1-dioxide] | 0.26 µM | > 100 µM | > 100 µM | > 100 µM | > 100 µM |  |  |
| N#CCN1C(c2ccc(Cl)cc2)C(=O)Nc2ccccc2S1(=O)=O (stereo not drawn) [Compound 7d, 2-(3-(4-Chlorophenyl)-1,1-dioxido-4-oxo-4,5-dihydrobenzo[f][1,2,5]thiadiazepin-2(3H)-yl)acetonitrile] | > 100 µM | 92.3 µM | > 100 µM | > 100 µM | > 100 µM |  |  |
| O=C1Nc2ccccc2S(=O)(=O)N(Cc2cccc(F)c2)C1c1ccc(Cl)cc1 (stereo not drawn) [Compound 7e, 3-(4-Chlorophenyl)-2-(3-fluorobenzyl)-2,3-dihydrobenzo[f][1,2,5]thiadiazepin-4(5H)-one 1,1-dioxide] | > 100 µM | > 100 µM | > 100 µM | > 100 µM | 90.5 µM |  |  |
| O=C1Nc2ccccc2S(=O)(=O)N(Cc2c(F)cccc2F)C1c1ccc(Cl)cc1 (stereo not drawn) [Compound 7f, 3-(4-Chlorophenyl)-2-(2,6-difluorobenzyl)-2,3-dihydrobenzo[f][1,2,5]thiadiazepin-4(5H)-one 1,1-dioxide] | 78 µM | > 100 µM | > 100 µM | > 100 µM | > 100 µM |  |  |
| O=C1Nc2ccccc2S(=O)(=O)N(Cc2ccccc2)C1c1ccc(Cl)cc1 (stereo not drawn) [Compound 7g, 2-Benzyl-3-(4-chlorophenyl)-2,3-dihydrobenzo[f][1,2,5]thiadiazepin-4(5H)-one 1,1-dioxide] | 8.14 µM | > 100 µM | > 100 µM | > 100 µM | > 100 µM |  |  |
| O=C1Nc2ccccc2S(=O)(=O)N=C1c1ccc(Cl)cc1 [Compound 8, 3-(4-Chlorophenyl)benzo[f][1,2,5]thiadiazepin-4(5H)-one 1,1-dioxide] | 11.9 µM | > 100 µM | > 100 µM | > 100 µM | > 100 µM |  | p53-MDM2 inhibitory activity (in words) ([1]; FP binding assay): dramatic decrease of the inhibitory activity |
| O=C1Nc2ccc(Cl)cc2C(c2ccccc2)=NC1c1ccc(Cl)cc1 (stereo not drawn) [Compound 13, 7-Chloro-3-(4-chlorophenyl)-5-phenyl-1H-benzo[e][1,4]diazepin-2(3H)-one] |  |  |  |  |  | 3.12 µM | Ki [1]: 0.2 µM; IC50 (A549 (wild-type p53); A549, 72 h): 9.16 µM; IC50 (NCI-H1299 (p53 null); NCI-H1299, 72 h): 6.11 µM; IC50 (Saos-2 (p53 null); SAOS-2, 72 h): 3.01 µM |
| S=C1Nc2ccc(Cl)cc2C(c2ccccc2)=NC1c1ccc(Cl)cc1 (stereo not drawn) [Compound 14, 7-Chloro-3-(4-chlorophenyl)-5-phenyl-1H-benzo[e][1,4]diazepine-2(3H)-thione] |  |  |  |  |  | 5.31 µM | Ki [1]: 8.76 µM; IC50 (A549 (wild-type p53); A549, 72 h): 24.1 µM; IC50 (NCI-H1299 (p53 null); NCI-H1299, 72 h): 15.6 µM; IC50 (Saos-2 (p53 null); SAOS-2, 72 h): 3.67 µM |
| Clc1ccc(C2N=C(c3ccccc3)c3cc(Cl)ccc3-n3cnnc32)cc1 (stereo not drawn) [Compound 16, 8-Chloro-4-(4-chlorophenyl)-6-phenyl-4H-benzo[f][1,2,4]] |  |  |  |  |  | 4.17 µM | Ki [1]: 1.22 µM; IC50 (A549 (wild-type p53); A549, 72 h): 7.62 µM; IC50 (NCI-H1299 (p53 null); NCI-H1299, 72 h): 5.5 µM; IC50 (Saos-2 (p53 null); SAOS-2, 72 h): 3.55 µM; antiproliferative activity against U-2 OS relative to nutlin-3 (U-2 OS (wild-type p53); better than nutlin-3): about 4 fold |
| Clc1ccc(C2NC(c3ccccc3)c3cc(Cl)ccc3-n3cnnc32)cc1 (stereo not drawn) [Compound 17, 8-Chloro-4-(4-chlorophenyl)-6-phenyl-5,6-dihydro-4H-benzo[f][1,2,4]triazolo[4,3-a][1,4]diazepine] |  |  |  |  |  | 34 µM | Ki [1]: 2.8 µM; IC50 (A549 (wild-type p53); A549, 72 h): 26.8 µM; IC50 (NCI-H1299 (p53 null); NCI-H1299, 72 h): 34.6 µM; IC50 (Saos-2 (p53 null); SAOS-2, 72 h): 24.8 µM; in vitro antitumor activity (in words) [2]: poor activity |
| COc1ccc(C2=N[C@@H](c3ccc(Cl)cc3)[C@@H](c3ccc(Cl)cc3)N2C(=O)N2CCNC(=O)C2)c(OC(C)C)c1 [Nutlin-3, reference compound] |  |  |  |  |  | 16.3 µM |  |
| O=C(O)[C@H](c1ccc(Cl)cc1)N1C(=O)c2cc(I)ccc2NC(=O)[C@@H]1c1ccc(Cl)cc1 [TDP222669] |  |  |  |  |  |  | bioavailability [3]: limited bioavailability; in vivo clearance [3]: rapid in vivo clearance |
